The numbers were not newly measured in patent US20070141150A1, “Pharmaceutical composition” (priority 2003, published 2007), which cites them from elsewhere.

Where a name gives a salt, the structure may show the parent alone.

For the data set the following is noted: interaction between propranolol and the polyanionic methacrylic acid copolymer.

As a reminder, the Hill coefficient is the slope factor of the fitted curve. Turning to `CC(C)NCC(O)COc1cccc2ccccc12` (stereo not shown) [propranolol, propranolol hydrochloride], the Hill coefficient is 1.5.
